According to PubChem BioAssay (NCI):
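In this assay, cells in 96-well plates receive the compound at five concentrations for 48 hours. Endpoints are linearly interpolated between the surrounding concentrations. Abbreviation: GI50, concentration required for 50% inhibition of growth. The concentration for full growth arrest is given as TGI.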

Tests used:
Test in all cases: growth of human tumour cells (NCI), 48 h
[1] = tested on: 786-0 renal
[2] = tested on: COLO 205 colon
[3] = tested on: IGROV1 ovarian
[4] = tested on: MOLT-4 leukemia
[5] = tested on: NCI-H23 lung
[6] = tested on: SF-295 CNS
[7] = tested on: SN12C renal
[8] = tested on: UACC-257 melanoma
[9] = tested on: ACHN renal

`CC(=O)C1C(=O)N(C(C)C)C[C@@H]2CCC(=O)C[C@H]12` (stereo partly specified) was tested, and the TGI [1] was > 100 µM, the TGI [2] was > 100 µM and the TGI [3] was > 100 µM. For the same compound, the TGI [4] was > 100 µM, the TGI [5] was > 100 µM and the TGI [6] was > 100 µM. The TGI [7] was > 100 µM and the TGI [8] was > 100 µM.

With `Cc1ccc(C(C)C)cc1NC(=O)Nc1ccc([N+](=O)[O-])cc1` the GI50 [1] was 2.32 µM, the TGI [1] was 5.29 µM and the GI50 [9] was 2.56 µM. It also gave a TGI [9] of 7.82 µM, a GI50 [2] of 1670 nM and a TGI [2] of 3.03 µM. The GI50 [3] was 1.38 µM, the TGI [3] was 4.79 µM and the GI50 [4] was 2130 nM. For the same compound, the TGI [4] was 4.63 µM, the GI50 [5] was 2490 nM and the TGI [5] was 7.97 µM. The GI50 [6] was 1840 nM, the TGI [6] was 5.11 µM and the GI50 [7] was 2.28 µM. For the same compound, the TGI [7] was 8.97 µM, the GI50 [8] was 2410 nM and the TGI [8] was 7.71 µM.

For `CCOP(=O)(Nc1ccc2oc(=O)c3ccccc3c2c1)OCC`, the TGI [1] was > 100 µM, the TGI [9] was > 100 µM and the TGI [2] was > 100 µM. The TGI [3] was > 100 µM, the TGI [4] was > 100 µM and the TGI [5] was > 100 µM. For the same compound, the TGI [6] was > 100 µM, the TGI [7] was > 100 µM and the TGI [8] was > 100 µM.

In the case of `Cc1nc(N)nc2ccccc12`, the TGI [1] is reported as > 100 µM, the TGI [9] is reported as > 100 µM and the GI50 [2] is reported as > 100000 nM. For the same compound, the TGI [2] was > 100 µM, the TGI [3] was > 100 µM and the TGI [4] was > 100 µM. For the same compound, the TGI [5] was > 100 µM, the TGI [6] was > 100 µM and the TGI [7] was > 100 µM. The TGI [8] was > 100 µM.

For `CNC(=O)CN(CC(N)=O)C(N)=O`, the TGI [1] was > 100 µM, the TGI [9] was > 100 µM and the TGI [2] was > 100 µM. For the same compound, the TGI [3] was > 100 µM, the TGI [4] was > 100 µM and the TGI [5] was > 100 µM. For the same compound, the TGI [6] was > 100 µM.

Compound `Cc1cc(Cl)ccc1NS(=O)(=O)c1ccc(-c2cnc(C3CC3)o2)cc1` has a GI50 [1] of 0.561 µM, a TGI [1] of 17.5 µM and a GI50 [9] of 0.649 µM. For the same compound, the TGI [9] was 20.5 µM, the GI50 [2] was 360 nM and the TGI [2] was 4.44 µM. The GI50 [3] was 0.365 µM, the TGI [3] was 15.5 µM and the GI50 [4] was 405 nM. The TGI [4] was > 44.2 µM, the GI50 [5] was 556 nM and the TGI [5] was 17.5 µM. The GI50 [6] was 79.9 nM, the TGI [6] was 2.02 µM and the GI50 [7] was 0.578 µM. For the same compound, the TGI [7] was 16.5 µM, the GI50 [8] was 3850 nM and the TGI [8] was 25.8 µM.

For `Oc1[nH]c2cc(Cl)ccc2c1/C=c1/ccc2c(c1)N=C(c1cc(F)cc(F)c1)N=2`, the GI50 [1] was 3.31 µM, the TGI [1] was 12.8 µM and the GI50 [9] was 4.99 µM. For the same compound, the TGI [9] was 19.9 µM, the GI50 [2] was 2240 nM and the TGI [2] was 5.29 µM. It also gave a GI50 [3] of 3.29 µM, a TGI [3] of 17.9 µM and a GI50 [4] of 1450 nM. For the same compound, the TGI [4] was 5.72 µM, the GI50 [5] was 2470 nM and the TGI [5] was 13 µM. The GI50 [6] was 509 nM, the TGI [6] was 2.84 µM and the GI50 [7] was 3.89 µM. The TGI [7] was 16.5 µM, the GI50 [8] was 927 nM and the TGI [8] was 19.2 µM.

Compound `O=C(Cc1csc2nc(-c3ccc(Br)cc3)cn12)N/N=C/c1ccc(O)cc1` has a GI50 [1] of 26.1 µM, a TGI [1] of 89 µM and a GI50 [9] of 14.7 µM. For the same compound, the TGI [9] was 51 µM, the GI50 [2] was 43300 nM and the TGI [2] was > 100 µM. For the same compound, the GI50 [3] was 10.6 µM, the TGI [3] was 39.7 µM and the GI50 [4] was 4210 nM. It also gave a GI50 [5] of 7500 nM, a TGI [5] of 32.2 µM and a GI50 [6] of 12000 nM. For the same compound, the TGI [6] was 41.7 µM, the GI50 [7] was 15.4 µM and the TGI [7] was 44.1 µM. For the same compound, the GI50 [8] was 1520 nM and the TGI [8] was 7.72 µM.

For `CC(=O)Oc1ccc2c(c1)CC[C@@H]1C2CC[C@]2(C)C(=O)NC(=O)CC12` (stereo partly specified), the TGI [1] was > 100 µM, the TGI [9] was > 100 µM and the TGI [2] was > 100 µM. The TGI [3] was > 100 µM, the TGI [4] was > 100 µM and the TGI [5] was > 100 µM. The TGI [6] was > 100 µM, the TGI [7] was > 100 µM and the TGI [8] was > 100 µM.

`Cc1cc(C(O)CN(C)C)cc2c1ccc1cc(C(C)C)ccc12` (stereo unspecified) gave a GI50 [1] of 1.84 µM, a TGI [1] of 3.4 µM and a GI50 [9] of 1.87 µM. The TGI [9] was 3.65 µM, the GI50 [2] was 1730 nM and the TGI [2] was 3.32 µM. For the same compound, the GI50 [3] was 1.85 µM, the TGI [3] was 3.8 µM and the GI50 [4] was 2160 nM. The TGI [4] was 5.22 µM, the GI50 [5] was 2850 nM and the TGI [5] was 10.6 µM. The GI50 [6] was 1850 nM, the TGI [6] was 3.54 µM and the GI50 [7] was 3.19 µM. The TGI [7] was 20.6 µM, the GI50 [8] was 2110 nM and the TGI [8] was 3.79 µM.

`COc1cccc(/C=C/C(=O)c2cc3c(N)c(C(=O)Nc4cccc5ccccc45)sc3nc2C)c1` showed a GI50 [1] of 0.851 µM, a TGI [1] of 1.85 µM and a GI50 [9] of 1.23 µM. It also gave a TGI [9] of 4.36 µM, a GI50 [2] of 1710 nM and a TGI [2] of 34.2 µM. It also gave a GI50 [3] of 1.05 µM, a TGI [3] of 2.78 µM and a GI50 [4] of 1460 nM. For the same compound, the TGI [4] was > 50 µM, the GI50 [5] was 1960 nM and the TGI [5] was > 50 µM. The GI50 [6] was 1670 nM, the TGI [6] was 23.1 µM and the GI50 [7] was 1.14 µM. For the same compound, the TGI [7] was 2.98 µM, the GI50 [8] was 1480 nM and the TGI [8] was 10.6 µM.

With `C=[CH][Sn]([CH]=C)([O]c1cccc2cccnc12)[O]c1cccc2cccnc12` the GI50 [1] was 3.31 µM, the TGI [1] was 9.29 µM and the GI50 [9] was 3.26 µM. For the same compound, the TGI [9] was 14.1 µM, the GI50 [2] was 1790 nM and the TGI [2] was 3.19 µM. For the same compound, the GI50 [3] was 3.31 µM, the TGI [3] was 11 µM and the GI50 [4] was 1420 nM. It also gave a TGI [4] of 11.1 µM, a GI50 [5] of 2320 nM and a TGI [5] of 6.87 µM. The GI50 [6] was 5270 nM, the TGI [6] was 19.4 µM and the GI50 [7] was 4.45 µM. The TGI [7] was 17.5 µM, the GI50 [8] was 2360 nM and the TGI [8] was 7.66 µM.

With `O=C1c2ccccc2C(=O)c2nc3ccc(Cl)cc3cc21` the TGI [1] was > 100 µM, the TGI [9] was > 100 µM and the TGI [2] was > 100 µM. For the same compound, the TGI [3] was > 100 µM, the TGI [4] was > 100 µM and the TGI [5] was > 100 µM. The TGI [6] was > 100 µM and the TGI [7] was > 100 µM.

Work on `Oc1ccc(Cl)cc1Cc1cc(Cl)ccc1O` yielded a GI50 [1] of 3.85 µM, a TGI [1] of 14.3 µM and a GI50 [9] of 3.33 µM. For the same compound, the TGI [9] was 11.3 µM, the GI50 [2] was 13700 nM and the TGI [2] was 26.8 µM. The GI50 [3] was 3.34 µM, the TGI [3] was 12.5 µM and the GI50 [4] was 2860 nM. It also gave a TGI [4] of 8.83 µM, a GI50 [5] of 2040 nM and a TGI [5] of 5.79 µM. For the same compound, the GI50 [6] was 2270 nM, the TGI [6] was 6.09 µM and the GI50 [7] was 2.8 µM. It also gave a TGI [7] of 10.7 µM, a GI50 [8] of 1870 nM and a TGI [8] of 5.39 µM.

With `C/C=C1\C(=O)OC2CCN3CCC(COC(=O)C(C)(O)C(C)C1O)C23` (stereo unspecified) the TGI [1] was > 100 µM, the TGI [9] was > 100 µM and the TGI [2] was > 100 µM. The TGI [3] was > 100 µM, the TGI [4] was > 100 µM and the TGI [5] was > 100 µM. The TGI [6] was > 100 µM, the TGI [7] was > 100 µM and the TGI [8] was > 100 µM.

`CC1(C)OC2C(COS(N)(=O)=O)SC(n3cnc4cncnc43)C2O1` (stereo unspecified) was tested, and the GI50 [1] was > 100 µM, the TGI [1] was > 100 µM and the GI50 [9] was > 100 µM. The TGI [9] was > 100 µM, the GI50 [2] was > 100000 nM and the TGI [2] was > 100 µM. The GI50 [3] was > 100 µM, the TGI [3] was > 100 µM and the GI50 [4] was > 100000 nM. The TGI [4] was > 100 µM, the GI50 [5] was > 100000 nM and the TGI [5] was > 100 µM. The GI50 [6] was > 100000 nM, the TGI [6] was > 100 µM and the GI50 [7] was > 100 µM. The TGI [7] was > 100 µM, the GI50 [8] was > 100000 nM and the TGI [8] was > 100 µM.
